These results are taken from patent US9555014B2, “Therapeutic regimens” (Radius Health, Inc., priority 2010, dated 2017).

Molecules are shown by their SMILES.

Assay [1] relates to postmenopausal women with frequent, moderate to severe vasomotor symptoms (hot flashes). The experiment in a line: Phase 2a study: hot flash frequency, severity and composite score. Format: in vivo, human (postmenopausal women). Particulars: 10 mg. From the text:
A phase 2a study was undertaken to assess the effect of (R)-6-(2-(ethyl(4-(2-(ethylamino)ethyl)benzyl)amino)-4-methoxyphenyl)-5,6,7,8-tetrahydronaphthalen-2-ol dihydrochloride (referred to as “drug” in tables below) to alleviate hot flashes in postmenopausal women. The study design and objectives are detailed below.
This is a randomized, placebo-controlled, double-blind, parallel-group, Phase 2, multi-center, dose-finding study to evaluate the effects of (R)-6-(2-(ethyl(4-(2-(ethylamino)ethyl)benzyl)amino)-4-methoxyphenyl)-5,6,7,8-tetrahydronaphthalen-2-ol dihydrochloride in the treatment of vasomotor symptoms in postmenopausal women.
A total of 100 eligible patients will be randomized to receive one of 5 blinded treatment regimens. (R)-6-(2-(ethyl(4-(2-(ethylamino)ethyl)benzyl)amino)-4-methoxyphenyl)-5,6,7,8-tetrahydronaphthalen-2-ol dihydrochloride at doses 0, 10, 25, 50 or 100 mg will be dosed for 28-days.
Patients will document in real time hot flash frequency and severity according to a predetermined scale, in the provided electronic or paper Study Diary. Study Diary entries of hot flash frequency and severity and associated symptoms will be reviewed at each study visit. Serum markers of estrogen effect will be measured at specific study visits while on treatment.
The efficacy endpoints assessed are: • Change in frequency of hot flashes over time • Change in severity of hot flashes over time; • Change in composite score of hot flashes over time (frequency×severity)
(R)-6-(2-(ethyl(4-(2-(ethylamino)ethyl)benzyl)amino)-4-methoxyphenyl)-5,6,7,8-tetrahydronaphthalen-2-ol dihydrochloride was provided by sponsor in capsule form for oral administration. All doses (0, 10, 25, 50 and 100 mg) were provided as identical presentations. Each patient was provided with 2 containers of 28-capsules each at the start of treatment and took one capsule from each container every day for 28-days. Placebo contained the same excipients as active medication, but without (R)-6-(2-(ethyl(4-(2-(ethylamino)ethyl)benzyl)amino)-4-methoxyphenyl)-5,6,7,8-tetrahydronaphthalen-2-ol dihydrochloride. The patients were instructed to take the capsules orally in the fasted state (morning).
Changes in the efficacy endpoints of frequency, severity, and composite score of hot flashes over time; associated hot flash symptoms (palpitations, insomnia, joint aches, and headaches), PD markers of estrogen effect (FSH, LH, and lipid profile), drug levels, and MRS were to be summarized using descriptive statistics. Frequency, severity, and composite score of hot flashes over time were to be analyzed using repeated measures analysis of variance (ANOVA) with factors for treatment (treatment groups), time (study day) and their interaction. A linear trend test for treatment groups (placebo, and 10, 25, 50, 100 mg doses of drug) and for study day as well as any potential interaction between the two was to be included as part of the analyses by including both dose and time as continuous variables in the ANOVA model. Pair-wise comparisons of change from baseline were to be tested between the placebo group and each drug dose group for each timepoint; the mean difference together with a 95% confidence interval of the difference was to be presented for placebo compared with each active treatment group. Nominal p-values at Week 4 were to be presented. In addition, graphical presentations of mean (±standard error of the mean) and percent group responses over time together with repeated measures ANOVA to assess potential trend in responses over time in each dose group were to be presented. For the associated vasomotor symptoms (palpitations, insomnia, joint aches, and headaches collected in the patient diaries), patient and event frequencies were to be summarized by treatment week and treatment group.
Hot flashes were also scored according to their severity with a mild hot flash scored a “1”, a moderate hot flash scored a “2” and a severe hot flash scored a “3”. […]

The subject of assay [2] is mammary carcinoma cells (MCF-7). The experiment in a line: Estrogen-dependent proliferation of MCF-7 cells (preclinical data). Type of assay: cell-based. From the text:
The results of a phase 2a clinical study assessing the effects of the selective estrogen receptor modulator (SERM) (R)-6-(2-(ethyl(4-(2-(ethylamino)ethyl)benzyl)amino)-4-methoxyphenyl)-5,6,7,8-tetrahydronaphthalen-2-ol on women suffering from hot flushes are reported herein.

With `CCNCCc1ccc(CN(CC)c2cc(OC)ccc2[C@@H]2CCc3cc(O)ccc3C2)cc1` [compound of formula I, (R)-6-(2-(ethyl(4-(2-(ethylamino)ethyl)-benzyl)amino)-4-methoxyphenyl)-5,6,7,8-tetrahydronaphthalen-2-ol], the “hot flush frequency reduction” value is −75% in assay [1] (cohort with 2 hour postdose plasma concentration 0.43 ng/mL to 0.53 ng/mL) and −77% in assay [1] (higher concentration cohort, 2 hour postdose plasma concentration 0.66 ng/mL to 1.34 ng/mL). In addition, in assay [2], the “antagonism of estradiol stimulation on MCF-7 cells” value is “potent antagonist of estradiol stimulation”. Moreover, the “stimulation of estrogen-dependent proliferation of MCF-7 cells (agonism)” value in assay [2] (compared with prototypical estrogen agonists (e.g. estradiol)) is “does not stimulate estrogen-dependent proliferation”.
